US20090227563A1, “HERBICIDAL COMPOSITIONS HAVING IMPROVED EFFECT” (Bayer CropScience AG, priority 2005, published 2009)

Legend:
Type in all cases: in vivo
[1] = system: Alopecurus myosuroides (ALOMY); assay: Glasshouse trial on activity boost, post-emergence spraying, visual rating
Protocol: (§1) Seeds of monocot and dicot weeds and crop plants are sown in sandy loam soil in wood fibre pots or in plastic pots, and are covered with soil and cultivated under good growth conditions in the glasshouse and also, during the vegetation period, outdoors outside the glasshouse. 2-3 weeks after sowing, the trial plants are treated at the one- to three-leaf stage. The test compounds, formulated as wettable powders (WP) or liquids (EC), are applied by spraying to the plants and the soil surface in various doses, with a water application rate of 300 l/ha (converted) and with the addition of penetrants (0.2% to 0.4%) and where appropriate an ammonium salt. After the trial plants had stood in the glasshouse for about 3 to 4 weeks under optimum growth conditions, the activity of the products was rated visually in comparison to untreated controls (activity in %, i.e. 0%=no activity or as control, 100%=all plants died).
(§2) For rapeseed oil methyl ester (RME) the following tables specify concentration in % a.i. by volume for ammonium sulphate (AMS) in g/l in the spray liquor.
(§3) ALOMY=Alopecurus myosuroides AVEFA=Avena fatua LOLMU=Lolium multiflorum LOLRI=Lolium rigidum
(§4) ALOMY=Alopecurus myosuroides AVEFA=Avena fatua LOLMU=Lolium multiflorum SETVI=Setaria viridis
(§5) ALOMY=Alopecurus myosuroides AVEFA=Avena fatua LOLMU=Lolium multiflorum SETVI=Setaria viridis BROER=Bromus erectus

[2] = system: Avena fatua (AVEFA); assay: as above
Protocol: as §1, §2, §3, §4, §5

[3] = system: Lolium multiflorum (LOLMU); assay: as above
Protocol: as §1, §2, §3, §4

[4] = system: Setaria viridis (SETVI); assay: as above
Protocol: as §1, §2, §4

[5] = system: APESV; assay: as above; settings: 5 g/ha
Protocol: as §1

[6] = system: LOLME; assay: as above; settings: 5 g/ha
Protocol: as §1

[7] = system: Bromus erectus (BROER); assay: as above; settings: 5 g/ha
Protocol: as §1, §5

[8] = system: Agropyron repens (AGRRE); assay: Plot trials (about 10 m2, 9 trials), post-emergence treatment; settings: 5 g/ha, sum of all trials
Protocol: (§6) In plots measuring approximately 10 m^2, in 9 trials, post-emergence treatments were carried out in 2-3 repetitions with compound (I-1-c-1). The weed population was the natural population and/or a sown population specifically geared to the objective. The active ingredient (I-1-c-1) was delivered as an EC formulation at the stated application rates with a penetrant of the formula (III-c-1) at a concentration of 0.3 g/l in 300 l of water, as a tank mix. In the elements of the trial with ammonium sulphate (AMS) the salt was added at 1 g/l to the spray liquor. Evaluation was made on the day of maximum activity. The activities reported in Table 5 are those obtained over the sum of all the trials.
(§7) AGRRE=Agropyron repens ALOMY=Alopecurus myosuroides AVEFA=Avena fatua

[9] = system: Alopecurus myosuroides (ALOMY); assay: as above; settings: 5 g/ha, sum of all trials
Protocol: as §6, §7

[10] = system: Avena fatua (AVEFA); assay: as above; settings: 5 g/ha, sum of all trials
Protocol: as §6, §7

[11] = 12.5 g/ha, RME (0.25%) + AMS (3.3 g/l)
[12] = 25 g/ha, RME (0.25%) + AMS (3.3 g/l)
[13] = 50 g/ha, RME (0.25%) + AMS (3.3 g/l)
[14] = 5 g/ha, Genapol LRO (0.33%) + AMS (3.3 g/l)
[15] = Genapol LRO (0.33%) + AMS (3.3 g/l)
[16] = (III-c-1) (0.3 g/l) + AMS (1 g/l)
[17] = 25 g/ha, RME (0.25%) + AMS (0.33 g/l)
[18] = 25 g/ha, RME (0.25%) + AMS (1 g/l)
[19] = 50 g/ha, RME (0.25%) + AMS (0.33 g/l)
[20] = 50 g/ha, RME (0.25%) + AMS (1 g/l)

SMILES: CCc1cc(C)cc(CC)c1C1C(=O)[C@H]2CCCC[C@@H]2C1=O [I-6-a-2]
- Activity ([1]; 12.5 g/ha, RME (0.25%)): 10%
- Activity [1, 11]: 75%
- Activity ([1]; 25 g/ha, RME (0.25%)): 30%
- Activity [1, 12]: 93%
- Activity ([2]; 12.5 g/ha, RME (0.25%)): 10%
- Activity [2, 11]: 93%
- Activity ([2]; 25 g/ha, RME (0.25%)): 35%
- Activity [2, 12]: 99%
- Activity ([3]; 12.5 g/ha, RME (0.25%)): 5%
- Activity [3, 11]: 97%
- Activity ([3]; 25 g/ha, RME (0.25%)): 20%
- Activity [3, 12]: 100%

SMILES: CCc1cc(C)cc(C)c1C1C(=O)CC2(CCCCC2)C1=O (stereo not drawn) [I-6-a-1]
- Activity ([4]; 12.5 g/ha, RME (0.25%)): 0%
- Activity [4, 11]: 25%
- Activity ([4]; 25 g/ha, RME (0.25%)): 15%
- Activity [4, 12]: 90%
- Activity ([4]; 50 g/ha, RME (0.25%)): 25%
- Activity [4, 13]: 90%

SMILES: CC1=CC(=O)C(c2c(C)cc(C)cc2C)C(=O)O1 (stereo not drawn) [I-4-a-1]
- Activity ([4]; 25 g/ha, RME (0.25%)): 0%
- Activity [4, 12]: 20%
- Activity ([4]; 50 g/ha, RME (0.25%)): 0%
- Activity [4, 13]: 90%
- Activity ([4]; 100 g/ha, RME (0.25%)): 0%
- Activity ([4]; 100 g/ha, RME (0.25%) + AMS (3.3 g/l)): 90%

SMILES: CCOC(=O)OC1=C(c2c(CC)cc(Cl)cc2OC)C(=O)NC12CCC(OC)CC2 (stereo not drawn) [I-1-c-1]
- Activity ([1]; 5 g/ha, Genapol LRO (0.33%)): 73%
- Activity [1, 14]: 99%
- Activity ([2]; 5 g/ha, Genapol LRO (0.33%)): 75%
- Activity [2, 14]: 100%
- Activity ([5]; Genapol LRO (0.33%)): 93%
- Activity [5, 15]: 97%
- Activity ([6]; Genapol LRO (0.33%)): 86%
- Activity [6, 15]: 97%
- Activity ([7]; Genapol LRO (0.33%)): 73%
- Activity [7, 15]: 97%
- Activity [8, 16]: 90%
- Activity ([8]; (III-c-1) (0.3 g/l)): 80%
- Activity [9, 16]: 72%
- Activity ([9]; (III-c-1) (0.3 g/l)): 67%
- Activity [10, 16]: 90%
- Activity ([10]; (III-c-1) (0.3 g/l)): 80%

SMILES: CCc1cc(C)cc(CC)c1-c1c(OC(=O)C(C)(C)C)n2n(c1=O)CCOCC2 [I-8-b-1]
- Activity ([1]; 25 g/ha, RME (0.25%)): 20%
- Activity [1, 17]: 70%
- Activity [1, 18]: 50%
- Activity [1, 12]: 80%
- Activity ([1]; 50 g/ha, RME (0.25%)): 90%
- Activity [1, 13]: 95%
- Activity ([2]; 25 g/ha, RME (0.25%)): 30%
- Activity [2, 12]: 80%
- Activity ([2]; 50 g/ha, RME (0.25%)): 70%
- Activity [2, 19]: 90%
- Activity [2, 20]: 95%
- Activity [2, 13]: 97%
- Activity ([3]; 25 g/ha, RME (0.25%)): 60%
- Activity [3, 12]: 93%
- Activity ([3]; 50 g/ha, RME (0.25%)): 97%
- Activity [3, 13]: 100%

SMILES: CCc1cc(C)cc(Br)c1C1=C(O)C(C)(C)NC1=O [I-1-a-6]
- Activity ([4]; 12.5 g/ha, RME (0.25%)): 50%
- Activity ([4]; 12.5 g/ha, RME (0.25%) + AMS (0.33 g/l)): 65%
- Activity ([4]; 12.5 g/ha, RME (0.25%) + AMS (1 g/l)): 75%
- Activity [4, 11]: 90%
- Activity ([3]; 50 g/ha, RME (0.25%)): 5%
- Activity [3, 19]: 20%
- Activity [3, 20]: 50%
- Activity [3, 13]: 65%

SMILES: CCCCO[C@@H]1CCC[C@]2(C1)NC(=O)C(c1c(C)cc(C)cc1C)=C2O [I-1-a-5]
- Activity ([1]; 25 g/ha, RME (0.25%)): 25%
- Activity [1, 17]: 50%
- Activity [1, 18]: 50%
- Activity [1, 12]: 60%
- Activity ([3]; 50 g/ha, RME (0.25%)): 5%
- Activity [3, 19]: 60%
- Activity [3, 20]: 93%
- Activity [3, 13]: 95%
